Experiments:
B2 bradykinin receptor = target: T1, B2 bradykinin receptor (Homo sapiens, UniProt P30411); assay type: cell membranes, Membrane; settings: chem-1; note: in other assays of this panel Not Active means under 50% inhibition at 10 µM
T1 sequence (P30411 whole entry): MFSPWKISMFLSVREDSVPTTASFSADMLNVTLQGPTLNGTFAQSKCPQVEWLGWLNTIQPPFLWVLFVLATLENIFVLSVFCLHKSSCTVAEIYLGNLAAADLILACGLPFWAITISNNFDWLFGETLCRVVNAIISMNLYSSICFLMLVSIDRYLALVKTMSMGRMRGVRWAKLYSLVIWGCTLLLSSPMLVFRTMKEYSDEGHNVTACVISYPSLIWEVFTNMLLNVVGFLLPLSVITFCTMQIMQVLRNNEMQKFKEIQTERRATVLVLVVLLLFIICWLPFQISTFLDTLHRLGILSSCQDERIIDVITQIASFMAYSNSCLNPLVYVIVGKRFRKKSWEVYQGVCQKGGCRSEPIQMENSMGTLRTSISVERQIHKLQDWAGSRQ

[1] = target: T2, Type-2 angiotensin II receptor (Homo sapiens, UniProt P50052); assay type: cell-based; settings: cho-k1; note: in other assays of this panel Not Active means under 50% inhibition at 10 µM
T2 sequence (P50052 whole entry): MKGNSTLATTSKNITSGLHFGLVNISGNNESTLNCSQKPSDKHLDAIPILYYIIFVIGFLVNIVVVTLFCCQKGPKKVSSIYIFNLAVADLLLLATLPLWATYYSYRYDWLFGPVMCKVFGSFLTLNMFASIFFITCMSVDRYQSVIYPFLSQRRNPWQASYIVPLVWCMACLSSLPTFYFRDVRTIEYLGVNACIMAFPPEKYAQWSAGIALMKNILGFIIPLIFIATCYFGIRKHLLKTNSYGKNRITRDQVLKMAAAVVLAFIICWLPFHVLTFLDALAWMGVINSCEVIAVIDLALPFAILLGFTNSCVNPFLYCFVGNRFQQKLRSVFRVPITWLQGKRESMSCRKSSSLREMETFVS

Melanocortin receptor 5 = Melanocortin receptor 5 (Homo sapiens, UniProt P33032); assay type: cell membranes, HEK293, Membrane; settings: hek293; note: in other assays of this panel Not Active means under 50% inhibition at 10 µM
Cytochrome P450 2C9 = Cytochrome P450 2C9 (Homo sapiens, UniProt P11712); settings: bti-tn-5b1-4; note: in other assays of this panel Not Active means under 50% inhibition at 10 µM
[2] = target: C-C chemokine receptor type 5 (Homo sapiens, UniProt P51681); assay type: cell membranes, Membrane; settings: hek293; note: in other assays of this panel Not Active means under 50% inhibition at 10 µM
[3] = target: Prostaglandin G/H synthase 1 (Homo sapiens, UniProt P23219); assay: biochemical; assay type: tissue-based, Platelet; settings: platelet
[4] = DRUGMATRIX: Phosphodiesterase PDE3 enzyme inhibition (substrate: [3H]cAMP + cAMP); assay type: tissue-based, Homo sapiens; settings: platelet; Not Active = under 50% inhibition at 10 µM
[5] = target: Delta-type opioid receptor (Homo sapiens, UniProt P41143); assay type: cell membranes, HEK293, Membrane; settings: hek293; note: in other assays of this panel Not Active means under 50% inhibition at 10 µM
[6] = target: Protein kinase C alpha type (Homo sapiens, UniProt P17252); assay type: cell-based; settings: sf9
Thromboxane-A synthase = target: T3, Thromboxane-A synthase (Homo sapiens, UniProt P24557); assay: biochemical; assay type: tissue-based, Platelet
T3 sequence (P24557 whole entry): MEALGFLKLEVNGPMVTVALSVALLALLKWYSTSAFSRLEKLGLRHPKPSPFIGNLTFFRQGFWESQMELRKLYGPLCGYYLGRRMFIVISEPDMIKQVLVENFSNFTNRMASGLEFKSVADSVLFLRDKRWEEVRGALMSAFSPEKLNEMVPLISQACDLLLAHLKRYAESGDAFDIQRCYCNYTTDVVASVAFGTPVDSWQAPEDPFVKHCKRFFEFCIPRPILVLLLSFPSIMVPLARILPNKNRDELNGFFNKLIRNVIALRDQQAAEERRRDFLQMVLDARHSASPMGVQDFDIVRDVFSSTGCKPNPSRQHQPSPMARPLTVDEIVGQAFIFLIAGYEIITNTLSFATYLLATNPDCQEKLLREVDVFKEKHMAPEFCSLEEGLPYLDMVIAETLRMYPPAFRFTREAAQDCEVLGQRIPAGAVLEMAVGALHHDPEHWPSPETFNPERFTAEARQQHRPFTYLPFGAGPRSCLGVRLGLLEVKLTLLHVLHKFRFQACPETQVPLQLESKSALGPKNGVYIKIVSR

[7] = target: T4, Amine oxidase [flavin-containing] A (Homo sapiens, UniProt P21397); assay: DRUGMATRIX: Monoamine Oxidase MAO-A enzyme inhibition (substrate: Kynuramine); parameters: species or system BTI-TN-5B1-4; settings: bti-tn-5b1-4; Not Active = under 50% inhibition at 10 µM
T4 sequence (P21397 whole entry): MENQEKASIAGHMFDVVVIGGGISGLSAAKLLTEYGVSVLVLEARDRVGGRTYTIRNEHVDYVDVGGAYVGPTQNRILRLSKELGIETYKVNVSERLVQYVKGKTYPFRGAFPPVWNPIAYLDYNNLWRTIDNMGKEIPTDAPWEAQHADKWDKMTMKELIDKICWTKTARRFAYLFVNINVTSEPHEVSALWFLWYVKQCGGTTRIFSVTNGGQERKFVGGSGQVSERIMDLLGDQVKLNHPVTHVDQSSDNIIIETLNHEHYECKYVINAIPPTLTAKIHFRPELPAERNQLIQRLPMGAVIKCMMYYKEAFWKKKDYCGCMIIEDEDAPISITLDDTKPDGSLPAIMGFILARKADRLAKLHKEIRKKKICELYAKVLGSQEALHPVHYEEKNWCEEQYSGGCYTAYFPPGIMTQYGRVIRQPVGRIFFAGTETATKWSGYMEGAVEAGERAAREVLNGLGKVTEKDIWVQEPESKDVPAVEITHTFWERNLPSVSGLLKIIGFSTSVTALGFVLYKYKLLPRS

[8] = target: Sodium-dependent noradrenaline transporter (Homo sapiens, UniProt P23975); assay: DRUGMATRIX: Norepinephrine Transporter radioligand binding (ligand: [125I] RTI-55); assay type: cell membranes, MDCK, Membrane; settings: Not Active = under 50% inhibition at 10 µM
Carbonic anhydrase 2 = Carbonic anhydrase 2 (Homo sapiens, UniProt P00918); assay: DRUGMATRIX: Carbonic Anhydrase II enzyme inhibition (substrate: 4-Nitrophenyl acetate (4-NPA)); assay type: tissue-based, Erythrocyte; settings: Not Active = under 50% inhibition at 10 µM
[9] = target: Epidermal growth factor receptor (Homo sapiens, UniProt P00533); assay: DRUGMATRIX: Protein Tyrosine Kinase, EGF Receptor enzyme inhibition (substrate: Poly(Glu:Tyr)); assay type: cell-based, Insect cells; settings: insect cells; Not Active = under 50% inhibition at 10 µM
Cannabinoid receptor 1 = Cannabinoid receptor 1 (Homo sapiens, UniProt P21554); assay type: cell membranes, Membrane; settings: chem-1; note: in other assays of this panel Not Active means under 50% inhibition at 10 µM
Cannabinoid receptor 1, sequence (P21554 whole entry): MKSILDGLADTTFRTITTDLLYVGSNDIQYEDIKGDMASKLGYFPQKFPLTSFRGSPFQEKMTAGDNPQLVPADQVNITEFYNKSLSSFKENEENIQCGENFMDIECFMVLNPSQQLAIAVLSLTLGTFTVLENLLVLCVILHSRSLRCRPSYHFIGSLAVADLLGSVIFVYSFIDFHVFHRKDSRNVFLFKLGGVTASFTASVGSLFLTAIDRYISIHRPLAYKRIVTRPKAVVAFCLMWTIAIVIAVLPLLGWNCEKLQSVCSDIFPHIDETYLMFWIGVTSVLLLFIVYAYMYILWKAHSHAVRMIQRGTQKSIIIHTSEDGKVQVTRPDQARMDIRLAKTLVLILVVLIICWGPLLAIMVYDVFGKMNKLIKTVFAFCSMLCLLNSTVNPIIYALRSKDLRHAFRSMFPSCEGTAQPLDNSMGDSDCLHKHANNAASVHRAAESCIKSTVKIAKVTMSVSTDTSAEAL

Sodium-dependent noradrenaline transporter, sequence (P23975 whole entry): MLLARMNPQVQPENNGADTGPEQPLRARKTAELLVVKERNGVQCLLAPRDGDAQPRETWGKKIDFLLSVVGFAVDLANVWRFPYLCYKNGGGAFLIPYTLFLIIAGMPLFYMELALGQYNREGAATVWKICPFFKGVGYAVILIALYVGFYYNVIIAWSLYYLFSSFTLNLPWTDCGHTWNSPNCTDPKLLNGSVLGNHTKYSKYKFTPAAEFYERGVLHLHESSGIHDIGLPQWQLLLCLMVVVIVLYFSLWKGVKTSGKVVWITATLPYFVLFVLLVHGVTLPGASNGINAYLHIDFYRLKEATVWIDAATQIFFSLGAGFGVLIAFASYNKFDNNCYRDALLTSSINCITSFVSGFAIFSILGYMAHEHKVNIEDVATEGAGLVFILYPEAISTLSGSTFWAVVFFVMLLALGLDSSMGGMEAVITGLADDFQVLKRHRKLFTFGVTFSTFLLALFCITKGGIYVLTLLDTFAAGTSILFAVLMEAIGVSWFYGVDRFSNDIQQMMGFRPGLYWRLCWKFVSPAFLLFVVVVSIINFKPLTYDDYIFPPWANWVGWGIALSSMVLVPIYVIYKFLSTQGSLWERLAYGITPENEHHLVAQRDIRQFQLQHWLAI
Delta-type opioid receptor, sequence (P41143 whole entry): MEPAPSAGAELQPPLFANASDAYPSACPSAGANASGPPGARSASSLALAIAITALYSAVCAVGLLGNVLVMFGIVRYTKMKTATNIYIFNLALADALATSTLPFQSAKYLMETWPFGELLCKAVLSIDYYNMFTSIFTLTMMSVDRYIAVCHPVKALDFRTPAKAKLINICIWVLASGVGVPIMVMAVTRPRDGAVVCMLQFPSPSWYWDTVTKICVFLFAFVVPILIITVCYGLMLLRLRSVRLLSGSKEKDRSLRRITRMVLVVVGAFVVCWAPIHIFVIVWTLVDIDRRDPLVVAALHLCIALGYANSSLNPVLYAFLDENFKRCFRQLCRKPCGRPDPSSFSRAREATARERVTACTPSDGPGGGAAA
C-C chemokine receptor type 5, sequence (P51681 whole entry): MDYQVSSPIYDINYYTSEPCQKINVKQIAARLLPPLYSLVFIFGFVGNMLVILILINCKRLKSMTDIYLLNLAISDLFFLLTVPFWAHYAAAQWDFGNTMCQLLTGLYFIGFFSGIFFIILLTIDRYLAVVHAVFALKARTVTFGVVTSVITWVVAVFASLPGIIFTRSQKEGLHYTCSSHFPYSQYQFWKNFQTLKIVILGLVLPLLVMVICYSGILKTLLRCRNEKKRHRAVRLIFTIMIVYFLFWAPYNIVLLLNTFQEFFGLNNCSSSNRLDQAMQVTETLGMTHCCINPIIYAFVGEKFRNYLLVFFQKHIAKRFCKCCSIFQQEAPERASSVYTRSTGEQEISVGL
Epidermal growth factor receptor, sequence (P00533 whole entry): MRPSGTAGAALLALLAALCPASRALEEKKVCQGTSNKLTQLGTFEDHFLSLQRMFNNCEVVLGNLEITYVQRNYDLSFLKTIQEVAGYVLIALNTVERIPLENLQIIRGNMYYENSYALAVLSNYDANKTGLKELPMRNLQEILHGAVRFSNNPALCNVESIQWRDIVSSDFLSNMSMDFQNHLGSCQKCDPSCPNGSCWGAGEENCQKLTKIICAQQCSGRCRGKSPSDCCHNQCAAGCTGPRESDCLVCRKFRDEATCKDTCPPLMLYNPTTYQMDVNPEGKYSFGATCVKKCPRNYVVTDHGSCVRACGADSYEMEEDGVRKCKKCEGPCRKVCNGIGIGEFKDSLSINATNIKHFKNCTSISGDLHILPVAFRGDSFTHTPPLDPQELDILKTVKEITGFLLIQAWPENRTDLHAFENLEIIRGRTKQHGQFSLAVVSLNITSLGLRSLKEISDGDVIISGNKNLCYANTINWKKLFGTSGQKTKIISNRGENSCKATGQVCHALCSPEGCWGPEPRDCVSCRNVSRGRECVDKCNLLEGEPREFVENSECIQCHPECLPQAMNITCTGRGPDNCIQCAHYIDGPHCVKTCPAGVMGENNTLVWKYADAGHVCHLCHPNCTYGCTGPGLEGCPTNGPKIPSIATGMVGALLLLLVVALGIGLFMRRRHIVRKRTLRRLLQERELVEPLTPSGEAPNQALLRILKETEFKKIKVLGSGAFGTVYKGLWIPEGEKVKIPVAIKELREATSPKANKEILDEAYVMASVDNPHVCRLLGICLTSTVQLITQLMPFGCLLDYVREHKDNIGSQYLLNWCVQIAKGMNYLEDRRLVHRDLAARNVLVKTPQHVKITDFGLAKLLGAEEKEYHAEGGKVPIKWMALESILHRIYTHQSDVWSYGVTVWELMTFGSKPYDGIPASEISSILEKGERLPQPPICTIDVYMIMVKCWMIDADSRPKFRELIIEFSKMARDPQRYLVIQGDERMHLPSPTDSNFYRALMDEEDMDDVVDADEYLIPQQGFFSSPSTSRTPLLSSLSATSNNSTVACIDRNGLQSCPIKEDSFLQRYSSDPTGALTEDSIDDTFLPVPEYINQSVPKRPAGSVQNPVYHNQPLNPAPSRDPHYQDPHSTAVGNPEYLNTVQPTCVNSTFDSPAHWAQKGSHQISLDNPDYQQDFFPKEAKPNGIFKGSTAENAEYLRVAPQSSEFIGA
Cytochrome P450 2C9, sequence (P11712 whole entry): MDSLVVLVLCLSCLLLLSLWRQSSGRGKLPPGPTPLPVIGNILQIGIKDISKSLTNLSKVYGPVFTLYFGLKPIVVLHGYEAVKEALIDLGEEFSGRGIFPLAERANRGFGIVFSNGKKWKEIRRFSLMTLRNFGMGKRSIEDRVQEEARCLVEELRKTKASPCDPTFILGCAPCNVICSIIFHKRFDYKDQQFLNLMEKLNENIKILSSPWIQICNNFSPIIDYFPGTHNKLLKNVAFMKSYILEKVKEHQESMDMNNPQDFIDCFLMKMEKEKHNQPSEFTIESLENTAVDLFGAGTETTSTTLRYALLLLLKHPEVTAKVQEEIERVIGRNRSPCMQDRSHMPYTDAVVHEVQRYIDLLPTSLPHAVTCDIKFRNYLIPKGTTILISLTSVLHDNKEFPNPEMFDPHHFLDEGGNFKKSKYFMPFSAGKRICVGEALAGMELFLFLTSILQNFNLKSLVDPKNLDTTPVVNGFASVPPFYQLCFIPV
Melanocortin receptor 5, sequence (P33032 whole entry): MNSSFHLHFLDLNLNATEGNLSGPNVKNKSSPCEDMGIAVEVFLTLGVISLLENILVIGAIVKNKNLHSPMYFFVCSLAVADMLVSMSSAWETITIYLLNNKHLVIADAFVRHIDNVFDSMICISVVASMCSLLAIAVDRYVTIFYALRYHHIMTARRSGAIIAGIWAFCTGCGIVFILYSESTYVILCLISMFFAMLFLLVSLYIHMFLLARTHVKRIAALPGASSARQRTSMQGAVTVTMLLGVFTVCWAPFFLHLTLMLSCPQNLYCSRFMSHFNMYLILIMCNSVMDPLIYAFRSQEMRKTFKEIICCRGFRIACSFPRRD

Compound	IC50 (B2 bradykinin receptor)	IC50 [1]	IC50 (Melanocortin receptor 5)	IC50 (Cytochrome P450 2C9)	Ki (Cytochrome P450 2C9)	IC50 [2]	IC50 [3]	IC50 [4]	Ki [4]	IC50 [5]	IC50 [6]	IC50 [7]	IC50 ([8]; mdck)	IC50 (Carbonic anhydrase 2; erythrocyte)	IC50 [9]	IC50 (Cannabinoid receptor 1)	IC50 (Thromboxane-A synthase; platelet)	also measured
CN1C[C@H](C(=O)N[C@]2(C)O[C@@]3(O)[C@@H]4CCCN4C(=O)[C@H](Cc4ccccc4)N3C2=O)C=C2c3cccc4[nH]cc(c34)C[C@H]21 [ERGOTAMINE]	Not Active	Not Active	Not Active	Not Active	Not Active	Not Active	Not Active	Not Active	Not Active	Not Active	Not Active	Not Active	Not Active	Not Active	Not Active	Not Active	–	IC50 (Thromboxane-A synthase; read-out: IC50): 3.06 µM
C=C1[C@@H]2CCC3[C@@](CC[C@@H]4[C@H](C(=O)O)C[C@@H](O[C@@H]5O[C@H](CO)[C@@H](OS(=O)(=O)[O-])[C@H](OS(=O)(=O)[O-])[C@H]5OC(=O)CC(C)C)C[C@@]34C)(C2)[C@@H]1O.[K+].[K+] (stereo partly specified) [ATRACTYLOSIDE]	Not Active	Not Active	Not Active	Not Active	Not Active	Not Active	Not Active	Not Active	Not Active	Not Active	Not Active	Not Active	Not Active	Not Active	Not Active	Not Active	Not Active	–
CCCCCCCCCc1ccc(O)cc1 [4-NONYLPHENOL]	Not Active	Not Active	Not Active	Not Active	Not Active	Not Active	Not Active	Not Active	Not Active	Not Active	Not Active	Not Active	–	Not Active	Not Active	Not Active	Not Active	IC50 ([8]; read-out: IC50): 1.25 µM; Ki ([8]; read-out: Ki): 1.24 µM
N#C[C@H](O[C@@H]1O[C@H](CO[C@@H]2O[C@H](CO)[C@@H](O)[C@H](O)[C@H]2O)[C@@H](O)[C@H](O)[C@H]1O)c1ccccc1 [AMYGDALIN]	Not Active	Not Active	Not Active	Not Active	Not Active	Not Active	Not Active	Not Active	Not Active	Not Active	Not Active	Not Active	Not Active	Not Active	Not Active	Not Active	Not Active	–
GOLD SODIUM THIOMALATE	Not Active	Not Active	Not Active	Not Active	Not Active	Not Active	Not Active	Not Active	Not Active	Not Active	Not Active	Not Active	Not Active	Not Active	–	Not Active	Not Active	Ki (B2 bradykinin receptor): Not Active; Ki [1]: Not Active; Ki (Melanocortin receptor 5): Not Active; Ki [2]: Not Active; Ki [3]: Not Active; Ki [5]: Not Active; Ki [6]: Not Active; Ki (Thromboxane-A synthase; platelet): Not Active; Ki [7]: Not Active; Ki ([8]; mdck): Not Active; Ki (Carbonic anhydrase 2; erythrocyte): Not Active; Ki (Cannabinoid receptor 1): Not Active
CCCC[C@@H](CC)COC(=O)c1ccccc1C(=O)OC[C@@H](CC)CCCC [BIS(2-ETHYLHEXYL)PHTHALATE]	Not Active	Not Active	Not Active	Not Active	Not Active	Not Active	Not Active	Not Active	Not Active	Not Active	Not Active	Not Active	Not Active	–	Not Active	Not Active	Not Active	IC50 (Carbonic anhydrase 2; read-out: IC50): 66.9 µM
C=C(C)[C@@H]1[C@H]2OC(=O)[C@@H]1[C@]1(O)C[C@H]3O[C@]34C(=O)O[C@H]2[C@]14C [PICROTOXININ]	Not Active	Not Active	Not Active	Not Active	Not Active	Not Active	Not Active	Not Active	Not Active	Not Active	Not Active	Not Active	Not Active	Not Active	Not Active	Not Active	Not Active	–
